Measurements published in PubChem BioAssay AID330 (DTP/NCI, 2004).
“And” between values parts separate entries of the source, which are not always exact repeats. Identical values can stand only once. Toxic doses and inconclusive results are not listed. Rule for the calls: active = survival T/C of 150% or more; inactive = T/C below 125% in these data.

Tested on: P388 leukemia ip, CD2F1 mice, survival T/C
Test: NCI In Vivo Anticancer Drug Screen. Data for tumor model P388 Leukemia (intraperitoneal) in CD2F1 (CDF1) mice
Settings: endpoint: median survival time, higher = longer survival
Method in brief: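 Mice carrying the transplanted tumor received test compound or vehicle. Survival was recorded in each group, and the value is the treated-group measurement divided by that of the vehicle-treated control group.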

[1] = dose: 25.0 mg/kg/injection, schedule: Q01DX009 (ip), vehicle: Klucel (hydroxypropylcellulose) (HPC)
[2] = dose: 50.0 mg/kg/injection, schedule: Q01DX009 (ip), vehicle: Klucel (hydroxypropylcellulose) (HPC)
[3] = dose: 100.0 mg/kg/injection, schedule: Q01DX009 (ip), vehicle: Klucel (hydroxypropylcellulose) (HPC)
[4] = dose: 200.0 mg/kg/injection, schedule: Q01DX009 (ip), vehicle: Klucel (hydroxypropylcellulose) (HPC)
[5] = dose: 50.0 mg/kg/injection, schedule: Q01DX005 (ip), vehicle: Klucel (hydroxypropylcellulose) (HPC)
[6] = dose: 100.0 mg/kg/injection, schedule: Q01DX005 (ip), vehicle: Klucel (hydroxypropylcellulose) (HPC)
[7] = dose: 200.0 mg/kg/injection, schedule: Q01DX005 (ip), vehicle: Klucel (hydroxypropylcellulose) (HPC)
[8] = dose: 60.0 mg/kg/injection, schedule: Q01DX005 (ip), vehicle: Klucel (hydroxypropylcellulose) (HPC)
[9] = dose: 120.0 mg/kg/injection, schedule: Q01DX005 (ip), vehicle: Klucel (hydroxypropylcellulose) (HPC)
[10] = dose: 240.0 mg/kg/injection, schedule: Q01DX005 (ip), vehicle: Klucel (hydroxypropylcellulose) (HPC)
[11] = dose: 50.0 mg/kg/injection, schedule: Q01DX009 (ip), vehicle: saline with Tween-80
[12] = dose: 100.0 mg/kg/injection, schedule: Q01DX009 (ip), vehicle: saline with Tween-80
[13] = dose: 200.0 mg/kg/injection, schedule: Q01DX009 (ip), vehicle: saline with Tween-80
[14] = dose: 60.0 mg/kg/injection, schedule: Q01DX005 (ip), vehicle: saline with Tween-80
[15] = dose: 120.0 mg/kg/injection, schedule: Q01DX005 (ip), vehicle: saline with Tween-80
[16] = dose: 240.0 mg/kg/injection, schedule: Q01DX005 (ip), vehicle: saline with Tween-80

Measured: T/C

CC(=O)C1C(=O)OC(C)(C)C1C=C(Cl)Cl (stereo not given)
inactive: dose: 100.0 mg/kg/injection, schedule: Q04DX002 (ip), vehicle: saline with Tween-80 101 % of control | dose: 200.0 mg/kg/injection, schedule: Q04DX002 (ip), vehicle: saline with Tween-80 107 % of control | dose: 400.0 mg/kg/injection, schedule: Q04DX002 (ip), vehicle: saline with Tween-80 109 % of control

COc1ccc(-c2cnnn2Cc2ccco2)cc1
inactive: dose: 100.0 mg/kg/injection, schedule: Q04DX002 (ip), vehicle: Klucel (hydroxypropylcellulose) (HPC) 105 % of control | dose: 200.0 mg/kg/injection, schedule: Q04DX002 (ip), vehicle: Klucel (hydroxypropylcellulose) (HPC) 100 % of control | dose: 400.0 mg/kg/injection, schedule: Q04DX002 (ip), vehicle: Klucel (hydroxypropylcellulose) (HPC) 102 % of control

O=C1CC2c3c(OCc4ccccc4)cc(OCc4ccccc4)cc3OC2O1 (stereo not given)
inactive: dose: 8.75 mg/kg/injection, schedule: Q01DX005 (ip), vehicle: Klucel (hydroxypropylcellulose) (HPC) 88 % of control | dose: 17.5 mg/kg/injection, schedule: Q01DX005 (ip), vehicle: Klucel (hydroxypropylcellulose) (HPC) 91 % of control | dose: 35.0 mg/kg/injection, schedule: Q01DX005 (ip), vehicle: Klucel (hydroxypropylcellulose) (HPC) 88 % of control

O=c1cc(-c2ccc3ccccc3n2)oc2ccc(Cl)cc12
inactive: dose: 10.0 mg/kg/injection, schedule: Q01DX009 (ip), vehicle: saline 107 % of control | dose: 20.0 mg/kg/injection, schedule: Q01DX009 (ip), vehicle: saline 93 % of control | dose: 40.0 mg/kg/injection, schedule: Q01DX009 (ip), vehicle: saline 89 % of control

CC12OC1(C)C1C(=O)OCC1C2=O (stereo not given)
inactive: [1] 105 % of control | [2] 96 % of control | [3] 97 % of control | [4] 117 % of control

CC(=O)N(CCCCCCN(C(C)=O)C(C)=O)C(C)=O
inactive: [5] 96 % of control | [6] 105 % of control | [7] 92 % of control | dose: 400.0 mg/kg/injection, schedule: Q01DX005 (ip), vehicle: Klucel (hydroxypropylcellulose) (HPC) 94 % of control

Cc1ccc(SC(F)(F)C(F)C(F)(F)F)cc1 (stereo not given)
inactive: dose: 50.0 mg/kg/injection, schedule: Q01DX005 (ip), vehicle: saline 98 % of control | dose: 100.0 mg/kg/injection, schedule: Q01DX005 (ip), vehicle: saline 101 % of control | dose: 200.0 mg/kg/injection, schedule: Q01DX005 (ip), vehicle: saline 100 % of control

O=C1c2cc(I)ccc2NC(O)c2cccn21 (stereo not given)
inactive: dose: 0.1 mg/kg/injection, schedule: Q01DX005 (ip), vehicle: water 93 % of control | dose: 0.2 mg/kg/injection, schedule: Q01DX005 (ip), vehicle: water 93 % of control | dose: 0.4 mg/kg/injection, schedule: Q01DX005 (ip), vehicle: water 99 % of control | dose: 0.8 mg/kg/injection, schedule: Q01DX005 (ip), vehicle: water 100 % of control | dose: 1.6 mg/kg/injection, schedule: Q01DX005 (ip), vehicle: water 96 % of control | dose: 5.0 mg/kg/injection, schedule: Q01DX005 (ip), vehicle: distilled water + Tween-80 94 % of control | dose: 10.0 mg/kg/injection, schedule: Q01DX005 (ip), vehicle: distilled water + Tween-80 100 % of control | dose: 20.0 mg/kg/injection, schedule: Q01DX005 (ip), vehicle: distilled water + Tween-80 99 % of control | dose: 40.0 mg/kg/injection, schedule: Q01DX005 (ip), vehicle: distilled water + Tween-80 92 % of control | dose: 80.0 mg/kg/injection, schedule: Q01DX005 (ip), vehicle: distilled water + Tween-80 93 % of control

CCCC(=O)Nc1ccn(C2OC(CO)C(O)C2O)c(=O)n1 (stereo not given)
inactive: dose: 25.0 mg/kg/injection, schedule: Q01DX009 (ip), vehicle: saline 99 % of control | dose: 50.0 mg/kg/injection, schedule: Q01DX009 (ip), vehicle: saline 96 % of control | dose: 100.0 mg/kg/injection, schedule: Q01DX009 (ip), vehicle: saline 94 % of control | dose: 200.0 mg/kg/injection, schedule: Q01DX009 (ip), vehicle: saline 96 % of control

Cc1nnsc1-c1nc2ccccc2[nH]1
inactive: [5] 95 % of control | [6] 102 % of control | [7] 104 % of control

CCCC(C)C1(CC(C)O)C(=O)NC(=O)NC1=O (stereo not given)
inactive: [2] 104 % of control | [3] 104 % of control | [4] 100 % of control

O=C1CSC(c2ccccc2F)N1c1ncccn1 (stereo not given)
inactive: dose: 12.5 mg/kg/injection, schedule: Q01DX005 (ip), vehicle: Klucel (hydroxypropylcellulose) (HPC) 105 % of control | dose: 25.0 mg/kg/injection, schedule: Q01DX005 (ip), vehicle: Klucel (hydroxypropylcellulose) (HPC) 108 % of control | [5] 108 % of control (2×) and 119 % of control | [6] 104 % of control and 109 % of control and 119 % of control | [7] 100 % of control and 109 % of control

CC(=O)c1cnn(C(N)=O)c1C
inactive: dose: 15.0 mg/kg/injection, schedule: Q01DX005 (ip), vehicle: Klucel (hydroxypropylcellulose) (HPC) 95 % of control and 96 % of control | dose: 30.0 mg/kg/injection, schedule: Q01DX005 (ip), vehicle: Klucel (hydroxypropylcellulose) (HPC) 100 % of control and 102 % of control | [8] 101 % of control and 97 % of control | [9] 105 % of control and 96 % of control and 98 % of control | [10] 107 % of control

Cc1nc2sc3c(c2c2ncnn12)CCCC3
inactive: dose: 50.0 mg/kg/injection, schedule: Q01DX005 (ip), vehicle: saline with Tween-80 103 % of control | dose: 100.0 mg/kg/injection, schedule: Q01DX005 (ip), vehicle: saline with Tween-80 98 % of control | dose: 200.0 mg/kg/injection, schedule: Q01DX005 (ip), vehicle: saline with Tween-80 104 % of control

C=CCN(CC=C)c1nc(N)c2cc(OC)c(OC)cc2n1
inactive: dose: 37.5 mg/kg/injection, schedule: Q01DX009 (ip), vehicle: suspension in saline 100 % of control | dose: 75.0 mg/kg/injection, schedule: Q01DX009 (ip), vehicle: suspension in saline 106 % of control

CC1(C)NC(=O)c2c(-c3ccccc3)c(-c3ccccc3)n(-c3ccccc3)c2N1
inactive: dose: 50.0 mg/kg/injection, schedule: Q01DX009 (ip), vehicle: suspension in saline 96 % of control | dose: 100.0 mg/kg/injection, schedule: Q01DX009 (ip), vehicle: suspension in saline 98 % of control | dose: 200.0 mg/kg/injection, schedule: Q01DX009 (ip), vehicle: suspension in saline 101 % of control

S=C1SC2(CCCC2)NC2=C1CCC2
inactive: [11] 90 % of control | [12] 93 % of control | [13] 99 % of control

Cc1ccc2c(c1)NC(=S)N=S2(C)=O (stereo not given)
inactive: [11] 95 % of control | [12] 93 % of control | [13] 102 % of control

Cn1cnc2n[nH]nc2c1=O
inactive: [2] 105 % of control | [3] 95 % of control | [4] 100 % of control

O=C(O)c1nn(Cc2ccc(Cl)cc2)c2ccccc12
inactive: [11] 109 % of control | [12] 103 % of control | [13] 110 % of control

O=C(Nc1cccc2ccccc12)[C@H]1C[C@H]2C=C[C@@H]1C2
inactive: dose: 100.0 mg/kg/injection, schedule: Q04DX003 (ip), vehicle: saline with Tween-80 95 % of control | dose: 200.0 mg/kg/injection, schedule: Q04DX003 (ip), vehicle: saline with Tween-80 90 % of control | dose: 400.0 mg/kg/injection, schedule: Q04DX003 (ip), vehicle: saline with Tween-80 113 % of control

O=c1[nH]cnc2nc3c(nc12)CCc1ccccc1-3
inactive: [14] 100 % of control | [15] 102 % of control | [16] 97 % of control

NNC(=O)c1ccc(-c2ccccc2)cc1
inactive: dose: 6.25 mg/kg/injection, schedule: Q01DX009 (ip), vehicle: Klucel (hydroxypropylcellulose) (HPC) 102 % of control | dose: 12.5 mg/kg/injection, schedule: Q01DX009 (ip), vehicle: Klucel (hydroxypropylcellulose) (HPC) 107 % of control | [1] 102 % of control | [2] 110 % of control | [3] 116 % of control

COC1(OC)C2(Cl)C(Cl)=C(Cl)C1(Cl)C1CCCCCC12 (stereo not given)
inactive: [14] 97 % of control | [15] 97 % of control | [16] 101 % of control

Cc1cc(=O)n(-c2ccc(F)cc2)[nH]1
inactive: [8] 89 % of control | [9] 92 % of control | [10] 90 % of control
